Test results reported in US20250186321A1, “FORMULATION USING AMINO ACID AND CARBOXYLIC ACID, ORGANIC SALT, AND COMPOSITION COMPRISING SAME AND USE THEREOF” (MIYOSHI OIL & FAT CO., LTD., priority 2021, published 2025).

Test: Appearance of formulation (state at 25° C.)
Assay type: physicochemical
Details: 25° C.; components (A) and (B) at the compounding molar ratio shown
Protocol: Formulations 1 to 427 shown in Tables 1A to 1D were prepared by the above-described method using the components (A) and (B) at the compounding molar ratios shown in the tables, and their states at 25° C. were observed.

Structure (SMILES)	state at 25° C.
N[C@@H](Cc1c[nH]cn1)C(=O)O.O=C(O)C=Cc1ccccc1 [Formulation 103]	Solid
N[C@@H](Cc1c[nH]cn1)C(=O)O.O=C1O[C@H]([C@@H](O)CO)C(O)=C1O [Formulation 104]	Solid
N[C@@H](Cc1c[nH]cn1)C(=O)O.O=CO.O=CO [Formulation 106]	Solid
CCCCCC(=O)O.CCCCCC(=O)O.N[C@@H](Cc1cnc[nH]1)C(=O)O [Formulation 109]	Solid
CCCC(=O)O.CCCC(=O)O.N[C@@H](Cc1cnc[nH]1)C(=O)O [Formulation 110]	Solid
CCCCCCCC/C=C\CCCCCCCC(=O)O.CCCCCCCC/C=C\CCCCCCCC(=O)O.N[C@@H](Cc1c[nH]cn1)C(=O)O [Formulation 112]	Solid
CCCCC/C=C\C/C=C\CCCCCCCC(=O)O.CCCCC/C=C\C/C=C\CCCCCCCC(=O)O.N[C@@H](Cc1cnc[nH]1)C(=O)O [Formulation 113]	Solid
N[C@@H](Cc1cnc[nH]1)C(=O)O.O=C(O)CCCCC(=O)O.O=C(O)CCCCC(=O)O [Formulation 116]	Solid
N[C@@H](Cc1c[nH]cn1)C(=O)O.O=C(O)C[C@H](O)C(=O)O.O=C(O)C[C@H](O)C(=O)O [Formulation 120]	Solid
N[C@@H](Cc1c[nH]cn1)C(=O)O.O=C(O)C(O)C(O)C(=O)O.O=C(O)C(O)C(O)C(=O)O [Formulation 122]	Solid
N[C@@H](Cc1c[nH]cn1)C(=O)O.O=C(O)c1ccccc1.O=C(O)c1ccccc1 [Formulation 123]	Solid
N[C@@H](Cc1c[nH]cn1)C(=O)O.O=C(O)/C=C/c1ccccc1.O=C(O)/C=C/c1ccccc1 [Formulation 124]	Solid
N[C@@H](Cc1c[nH]cn1)C(=O)O.O=C1O[C@H]([C@@H](O)CO)C(O)=C1O.O=C1O[C@H]([C@@H](O)CO)C(O)=C1O [Formulation 125]	Solid
CC(=O)O.NCC(=O)O [Formulation 128]	Solid
CCC(=O)O.NCC(=O)O [Formulation 129]	Solid
CCCCCC(=O)O.NCC(=O)O [Formulation 130]	Solid
CCCC(=O)O.NCC(=O)O [Formulation 131]	Solid
CCCCCCCC/C=C\CCCCCCCC(=O)O.NCC(=O)O [Formulation 133]	Solid
CCCCC/C=C\C/C=C\CCCCCCCC(=O)O.NCC(=O)O [Formulation 134]	Solid
NCC(=O)O.O=C(O)[C@H](O)[C@@H](O)[C@H](O)[C@H](O)CO [Formulation 135]	Solid
CC(O)C(=O)O.NCC(=O)O (centres unmarked) [Formulation 136]	Solid
NCC(=O)O.O=C(O)CCCCC(=O)O [Formulation 137]	Solid
NCC(=O)O.O=C(O)CCC(=O)O [Formulation 138]	Solid
NCC(=O)O.N[C@@H](CCC(=O)O)C(=O)O [Formulation 139]	Solid
NCC(=O)O.O=C(O)/C=C/C(=O)O [Formulation 140]	Solid
NCC(=O)O.O=C(O)C[C@H](O)C(=O)O [Formulation 141]	Solid
NCC(=O)O.O=C(O)C(O)C(O)C(=O)O (centres unmarked) [Formulation 143]	Solid
NCC(=O)O.O=C(O)c1ccccc1 [Formulation 144]	Solid
NCC(=O)O.O=C1O[C@H]([C@@H](O)CO)C(O)=C1O [Formulation 145]	Solid
